According to the supplement of paper PMC8671470:
± gives the standard deviation of the averaged measurements.

Columns and labels:
Conditions in all cases: 72 h
MOLM-13 [1] = tested on: MOLM-13
Outline: (§1)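 In 384-well plates holding acoustically pre-printed compounds at five tenfold doses from 1 to 10,000 nM, in duplicate, fifteen myeloid leukaemia cell lines were grown in RPMI 1640 for 72 h at 37 °C with 5% CO2. Luminescent ATP viability was scaled between vehicle and a positive control at 10 µM. The IC50 was then taken from log-logistic dose–response fits with four parameters.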

BV-173 [2] = tested on: BV-173
Outline: as §1

ML-2 [3] = tested on: ML-2
Outline: as §1

KU-812 [4] = tested on: KU-812
Outline: as §1

KCL-22 [5] = tested on: KCL-22
Outline: as §1

KG-1 [6] = tested on: KG-1
Outline: as §1

HEL = tested on: HEL
Outline: as §1

LAMA-84 [7] = tested on: LAMA-84
Outline: as §1

Mono-Mac-6 = tested on: Mono-Mac-6
Outline: as §1

K-562 [8] = tested on: K-562
Outline: as §1

THP-1 [9] = tested on: THP-1
Outline: as §1

NOMO-1 [10] = tested on: NOMO-1
Outline: as §1

MV4-11 [11] = tested on: MV4-11
Outline: as §1

SHI-1 = tested on: SHI-1
Outline: as §1

HL-60 [12] = tested on: HL-60
Outline: as §1

HL-60 [13] = experiment: cell viability (% survival relative to DMSO control); higher = less cytotoxic
Outline: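 Four-parameter log-logistic fits in drc and PharmacoGx supplied area under the curve where it is given. Underlying viability came from CellTiter-Glo, normalised to DMSO and proteasome-inhibitor wells, with the proteasome inhibitor at 10 μM. HL-60 cells in RPMI 1640 plus 10% FBS had been rescreened against the full library at five tenfold concentrations of 1–10,000 nM, in duplicate on 384-well plates, with DMSO or 100 nM of one of three metabolic inhibitors, for 72 h at 37 °C, 5% CO2.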

MOLM-13 [14] = experiment: cell viability (% survival relative to DMSO control, bortezomib = 0%); higher = less cytotoxic
Outline: (§2)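 After 72 h at 37 °C with 5% CO2, cell viability in 384-well plates was measured by CellTiter-Glo luminescence. The plates held compounds pre-printed at 1, 10, 100, 1000 or 10000 nM in duplicate, and cells from 10 AML and 5 CML lines seeded at densities titrated to linear growth. Percent survival is the duplicate mean, normalised to vehicle as 100% and a 10 µM positive control as 0%.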

BV-173 [15] = experiment: as above
Outline: as §2

ML-2 [16] = experiment: as above
Outline: as §2

KU-812 [17] = experiment: as above
Outline: as §2

KCL-22 [18] = experiment: as above
Outline: as §2

KG-1 [19] = experiment: as above
Outline: as §2

LAMA-84 [20] = experiment: as above
Outline: as §2

K-562 [21] = experiment: as above
Outline: as §2

THP-1 [22] = experiment: as above
Outline: as §2

NOMO-1 [23] = experiment: as above
Outline: as §2

MV4-11 [24] = experiment: as above
Outline: as §2

HL-60 [25] = experiment: as above
Outline: as §2

O=C1c2cc([N+](=O)[O-])ccc2-n2c1nc1ccccc1c2=O [GNF-Pf-3777]
Conditions | IC50 (cell viability) [nM]
BV-173 [2] | 1640
HEL | 934
HL-60 [12] | 1280
K-562 [8] | 1110
KCL-22 [5] | 538
KG-1 [6] | 1290
KU-812 [4] | 1310
LAMA-84 [7] | 1830
ML-2 [3] | 6050
MOLM-13 [1] | 1580
MV4-11 [11] | 1500
Mono-Mac-6 | 1780
NOMO-1 [10] | 5990
SHI-1 | 1930
THP-1 [9] | 1220

cell viability [%], HL-60 [13]
Conditions | 0.001 µM | 0.01 µM | 0.1 µM | 1 µM | 10 µM
co-treatment: AZD3965 100 nM | 103 ± 4.7 | 100 ± 1.4 | 105 ± 0.55 | 89 ± 6 | 2.3 ± 0.41
co-treatment: DMSO vehicle | 94.3 ± 0.29 | 102 ± 5.9 | 103 ± 3.4 | 91.6 ± 6 | 12.6 ± 4.2
co-treatment: GSK2194069 100 nM | 103 ± 6 | 98.4 ± 12 | 88.8 ± 4 | 80.8 ± 10 | 8.8 ± 9.7
co-treatment: pictilisib 100 nM | 95.5 ± 2.2 | 101.2 ± 0.8 | 92.2 ± 6.2 | 78.63 ± 0.57 | 6.29 ± 5.4

cell viability [%]
Conditions | 1 nM | 10 nM | 100 nM | 1000 nM | 10000 nM
BV-173 [15] | 95.9 | 104 | 89.5 | 66.4 | 4.9
HL-60 [25] | 89.7 | 92.2 | 105 | 59.1 | 0.853
K-562 [21] | 102 | 100 | 103 | 56.2 | 4.1
KCL-22 [18] | 87.9 | 115 | 102 | 37 | 21.2
KG-1 [19] | 99.6 | 95.6 | 110 | 67.1 | 27.6
KU-812 [17] | 91.6 | 91.1 | 87.9 | 53.4 | 6.51
LAMA-84 [20] | 97.5 | 102 | 96.1 | 71.3 | 32.8
ML-2 [16] | 96.7 | 99 | 97.8 | 94.1 | 28.8
MOLM-13 [14] | 99.5 | 122 | 108 | 75.8 | 18
MV4-11 [24] | 106 | 101 | 97.1 | 67.5 | 2.64
NOMO-1 [23] | 92.3 | 99.9 | 90.3 | 86.7 | 31.8
THP-1 [22] | 103 | 92.2 | 85.6 | 62.3 | 30.9
